Read-outs that look alike come from different tables or passages of the source.
Key:
[1] = Pectin / calcium acetate supplementation in human males: body weight and BMI; assay type: in vivo
From the text: The acetate supplement (phase 2), however, caused a decrease (from 88.16±12.35 kg to 83.09±10.80 kg) in body weight. Although this decrease may not be of statistical significance, it can be clinically significant in the cases of those subjects who lost weight.

blood lipids [2] = details: for % Inhibition / [Hydroperoxide]: in vitro; for [Hydroperoxide]: n = 5
fibrin clot [3] = target: fibrin clot (Homo sapiens, UniProt P02671+P02675+P02679); details: in vitro, n = 5
fibrin clot (Homo sapiens, UniProt P02671+P02675+P02679), sequence (P02671 36-629 limits assumed): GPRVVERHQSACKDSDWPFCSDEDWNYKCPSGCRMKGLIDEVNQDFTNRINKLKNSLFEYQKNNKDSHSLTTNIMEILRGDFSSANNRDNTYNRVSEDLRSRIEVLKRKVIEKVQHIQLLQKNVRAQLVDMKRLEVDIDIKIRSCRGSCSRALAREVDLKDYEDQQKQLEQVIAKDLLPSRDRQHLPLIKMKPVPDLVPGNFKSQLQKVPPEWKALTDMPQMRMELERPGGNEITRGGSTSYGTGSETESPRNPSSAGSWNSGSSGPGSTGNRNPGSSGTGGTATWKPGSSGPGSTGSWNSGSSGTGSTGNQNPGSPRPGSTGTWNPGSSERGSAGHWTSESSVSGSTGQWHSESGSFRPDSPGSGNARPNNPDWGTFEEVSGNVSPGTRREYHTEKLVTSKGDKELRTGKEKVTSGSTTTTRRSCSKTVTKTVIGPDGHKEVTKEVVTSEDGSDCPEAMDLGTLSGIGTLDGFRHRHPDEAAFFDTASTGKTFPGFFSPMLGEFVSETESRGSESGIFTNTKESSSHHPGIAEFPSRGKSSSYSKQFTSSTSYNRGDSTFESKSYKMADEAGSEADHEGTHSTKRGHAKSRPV
fibrin clot (Homo sapiens, UniProt P02671+P02675+P02679), sequence (P02675 45-491 limits assumed): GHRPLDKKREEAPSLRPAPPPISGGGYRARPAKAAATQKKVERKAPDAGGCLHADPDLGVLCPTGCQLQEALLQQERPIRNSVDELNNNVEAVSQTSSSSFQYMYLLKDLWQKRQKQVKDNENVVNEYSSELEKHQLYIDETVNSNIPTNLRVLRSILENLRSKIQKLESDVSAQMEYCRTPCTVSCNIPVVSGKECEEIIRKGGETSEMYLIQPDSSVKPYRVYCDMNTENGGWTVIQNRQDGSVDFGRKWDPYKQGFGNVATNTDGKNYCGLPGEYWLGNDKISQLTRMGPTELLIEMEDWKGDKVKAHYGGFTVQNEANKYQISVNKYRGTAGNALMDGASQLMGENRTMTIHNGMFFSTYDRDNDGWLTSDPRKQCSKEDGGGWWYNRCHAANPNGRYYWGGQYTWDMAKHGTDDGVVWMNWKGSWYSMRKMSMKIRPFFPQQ
fibrin clot (Homo sapiens, UniProt P02671+P02675+P02679), sequence (P02679 27-437 isoform P02679-2 limits assumed): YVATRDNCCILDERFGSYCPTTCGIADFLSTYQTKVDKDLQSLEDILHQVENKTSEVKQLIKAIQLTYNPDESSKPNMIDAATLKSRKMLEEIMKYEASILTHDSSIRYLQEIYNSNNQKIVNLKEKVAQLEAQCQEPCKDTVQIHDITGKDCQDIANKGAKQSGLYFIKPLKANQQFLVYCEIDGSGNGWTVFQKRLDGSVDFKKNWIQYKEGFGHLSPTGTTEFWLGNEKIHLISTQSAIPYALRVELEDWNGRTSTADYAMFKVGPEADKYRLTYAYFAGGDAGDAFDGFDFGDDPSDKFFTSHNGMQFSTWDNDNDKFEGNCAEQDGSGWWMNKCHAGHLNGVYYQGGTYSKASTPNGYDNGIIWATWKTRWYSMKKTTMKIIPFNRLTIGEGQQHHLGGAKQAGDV

[4] = Pectin / calcium acetate supplementation in human males: body weight and BMI; assay type: in vivo; remark: listed apart in the source
fibrin = fibrin (Homo sapiens, UniProt P02671+P02675+P02679); details: progressive increase in acetate, FIG. 2
fibrin, sequence (P02671 36-629 limits assumed): as the sequence (P02671 36-629 limits assumed) above
fibrin, sequence (P02675 45-491 limits assumed): as the sequence (P02675 45-491 limits assumed) above
fibrin, sequence (P02679 27-437 isoform P02679-2 limits assumed): as the sequence (P02679 27-437 isoform P02679-2 limits assumed) above
From the text: FIG. 2 is a urbidity curve of fibrin formation in the presence of different acetate concentrations; and
Referring to FIG. 2, the kinetics of network growth were subsequently investigated by continuously recording changes in turbidity at 608 nm, during network development under identical experimental conditions.

[5] = Supplementation in human males: metabolic variables; details: for ACETATE: acetate level in blood sample; for FFA: free fatty acids; for IR: insulin resistance; for TP: total protein
Method: (§1) The respective effects of pectin and an acetate when administered to the colon of a mammal were determined during a first experiment. The experiment was conducted in the following two phases: [drawing 1]
(§2) Twenty human males participated in the experimentation and these subjects were not on any medication for any chronic diseases at the time, and also had no history of cardiovascular disease. All the subjects were at the time following a relatively high fibre, low fat diet. During the first phase ten subjects consumed a total of 15 grams of pectin per day in four aliquots, while the other ten consumed a total of 15 grams of placebo (starch) per day in four aliquots.
(§3) During the second phase, the first group consumed a total of 7.5 grams of calcium acetate per day in four aliquots and the second group consumed a total of 15 grams of pectin per day in four aliquots. The calcium acetate was administered in capsules which were coated with a protective coating comprising a resin known commercially as shellac. This protective coating is resistant to digestion and solution in the stomach and small intestines, is but not resistant to the enzymes of the organisms usually found in the colon, so that the calcium acetate was thus released in the colon.
(§4) Blood samples where taken from the subjects after each phase and a large number of variables where tested.

[6] = Supplementation in human males: haemorheological variables (haematocrit, haemoglobin, plasma viscosity); assay type: in vivo; details: for VISCOSITY: plasma
Method: as §1, §2, §3, §4

blood lipids [7] = assay: Supplementation in human males: lipid variables; assay type: in vivo; details: for TC: total cholesterol; for TG: triglycerides
Method: as §1, §2, §3, §4

fibrin clot [8] = assay: Supplementation in human males: haemostatic variables and characteristics of fibrin networks developed in plasma; assay type: in vivo; details: for CLOT (FIBRIN): clot fibrin content; for LYSIS TIME (t 50%) / Permeability: clot; for COMPACTION: fibrin clot; for MPC: macromolecular protein complex; for μ,: mass length ratio from turbidity; for FIBRINOGEN: plasma
Method: as §1, §2, §3, §4

[9] = phase 2, end of supplementation (pectin 15 g/day; calcium acetate 7.5 g/day)

CC(=O)[O-].CC(=O)[O-].[Ca+2] [ACETATE, calcium acetate]
BMI ([1]; phase 2, baseline): 26.90 kg/m^2 | BMI [1, 9]: 25.65 kg/m^2 | % Inhibition (blood lipids [2]; 0.05 mmol/L (50 μM) acetate): 46.97% | [Hydroperoxide] (blood lipids [2]; 0.05 mmol/L acetate): 4.46 ± 0.15 × 10^−6 M | % Inhibition (blood lipids [2]; 0.10 mmol/L (100 μM) acetate): 56.01% | [Hydroperoxide] (blood lipids [2]; 0.10 mmol/L acetate): 3.70 ± 0.22 × 10^−6 M | % Inhibition (blood lipids [2]; 0.20 mmol/L (200 μM) acetate): 67.11% | [Hydroperoxide] (blood lipids [2]; 0.20 mmol/L acetate): 3.04 ± 0.23 × 10^−6 M | % Inhibition (blood lipids [2]; 0.30 mmol/L (300 μM) acetate): 73.12% | [Hydroperoxide] (blood lipids [2]; 0.30 mmol/L acetate): 2.26 ± 0.16 × 10^−6 M | minium inhibition: decrease of peroxidation in vitro from linear regression analysis (blood lipids [2]; r=0.98, m=−0.836): 56.12% | Clot [FIBRlN] (fibrin clot [3]; 75 μmol/L acetate): 1.36 ± 0.03 g/L | Permeability (fibrin clot [3]; 75 μmol/L acetate): 110.4 ± 5.17 × 10^11 cm^2 | μT (fibrin clot [3]; 75 μmol/L acetate): 17.44 ± 0.20 daltons/cm × 10^12 | Clot [FIBRlN] (fibrin clot [3]; 100 μmol/L acetate): 1.37 ± 0.07 g/L | Permeability (fibrin clot [3]; 100 μmol/L acetate): 118.0 ± 6.03 × 10^11 cm^2 | μT (fibrin clot [3]; 100 μmol/L acetate): 17.95 ± 0.22 daltons/cm × 10^12 | Clot [FIBRlN] (fibrin clot [3]; 150 μmol/L acetate): 1.39 ± 0.05 g/L | Permeability (fibrin clot [3]; 150 μmol/L acetate): 134.0 ± 5.02 × 10^11 cm^2 | μT (fibrin clot [3]; 150 μmol/L acetate): 19.51 ± 0.17 daltons/cm × 10^12 | BODY WEIGHT ([4]; phase 2, baseline): 88.16 ± 12.35 kg | BODY WEIGHT ([4]; phase 2, baseline, listed as PLACEBO): 88.16 kg | decrease in body weight ([4]; phase 2, clinically significant but statistically insignificant): 5.07 kg | BODY WEIGHT [4, 9]: 83.09 ± 10.80 kg | BODY WEIGHT ([4]; phase 2, end of supplementation (pectin 15 g/day; calcium acetate 7.5 g/day), listed as PLACEBO): 83.04 kg | kinetics of network growth (turbidity at 608 nm) (fibrin): enhanced the entire kinetics | ACETATE ([5]; phase 2, baseline): 37.63 µmol/L | ACETATE [5, 9]: 54.31 ± μmol/l | FFA ([5]; phase 2, baseline): 0.59 mmol/L | FFA [5, 9]: 0.45 ± mmol/l | IR ([5]; phase 2, baseline): 3.22 | IR [5, 9]: 2.93 | ALBUMIN ([5]; phase 2, baseline): 43.09 g/L | GLUCOSE ([5]; phase 2, baseline): 3.58 mmol/L | INSULIN ([5]; phase 2, baseline): 8.96 μU/ml | PPA/ALB ([5]; phase 2, baseline): 13.69 × 10^1 | ALBUMIN [5, 9]: 45.50 g/L | GLUCOSE [5, 9]: 3.78 mmol/L | INSULIN [5, 9]: 7.61 μU/ml | PPA/ALB [5, 9]: 9.89 ± × 10^1 | TP ([5]; phase 2, baseline): 71.69 g/L | TP [5, 9]: 71.52 g/L | HAEMATOCRIT ([6]; phase 2, baseline): 48.55% | HAEMOGLOBIN ([6]; phase 2, baseline): 11.12 mmol/L | HAEMATOCRIT [6, 9]: 46.83 ± % | HAEMOGLOBIN [6, 9]: 10.48 mmol/L | VISCOSITY ([6]; phase 2, baseline): 1.92 cP | VISCOSITY [6, 9]: 1.61 ± cP | % HDL-C (blood lipids [7]; phase 2, baseline): 17.04% | ApoA (blood lipids [7]; phase 2, baseline): 1.50 mmol/L | ApoB (blood lipids [7]; phase 2, baseline): 1.47 mmol/L | H2O3 (blood lipids [7]; phase 2, baseline): 1.27 µM | HDL-C (blood lipids [7]; phase 2, baseline): 1.11 mmol/L | LDL-C (blood lipids [7]; phase 2, baseline): 4.97 ± mmol/l | TBARM (blood lipids [7]; phase 2, baseline): 1.47 µM | % HDL-C (blood lipids [7]; [9]): 20.32 ± % | ApoA (blood lipids [7]; [9]): 1.40 ± mmol/l | ApoB (blood lipids [7]; [9]): 1.34 ± mmol/l | H2O3 (blood lipids [7]; [9]): 0.81 ± μM | HDL-C (blood lipids [7]; [9]): 1.18 mmol/L | LDL-C (blood lipids [7]; [9]): 4.20 ± mmol/l | TBARM (blood lipids [7]; [9]): 1.07 µM | TC (blood lipids [7]; phase 2, baseline): 6.55 mmol/L | TC (blood lipids [7]; [9]): 5.81 ± mmol/l | TG (blood lipids [7]; phase 2, baseline): 0.65 mmol/L | TG (blood lipids [7]; [9]): 1.33 ± mmol/l | CLOT (FIBRIN) (fibrin clot [8]; phase 2, baseline): 2.00 g/L | CLOT (FIBRIN) (fibrin clot [8]; [9]): 1.62 ± g/l | LYSIS TIME (t 50%) (fibrin clot [8]; phase 2, baseline): 251.9 | Permeability (fibrin clot [8]; phase 2, baseline): 212.52 × 10^11 cm^3 | LYSIS TIME (t 50%) (fibrin clot [8]; [9]): 130.3 ± | Permeability (fibrin clot [8]; [9]): 306.81 ± × 10^11 cm^3 | COMPACTION (fibrin clot [8]; phase 2, baseline): 22.47% | COMPACTION (fibrin clot [8]; [9]): 32.21 ± % | MPC (fibrin clot [8]; phase 2, baseline): 0.1146 g/L | MPC (fibrin clot [8]; [9]): 0.0852 ± g/l | μ, (fibrin clot [8]; phase 2, baseline): 22.93 Dal/cm × 10^12 | μ, (fibrin clot [8]; [9]): 34.28 ± Dal/cm × 10^12 | decrease in the total plasma fibrinogen concentration (fibrin clot [8]; phase 2, acetate supplementation, not significant): 11.2% | FIBRINOGEN (fibrin clot [8]; phase 2, baseline): 4.10 g/L | FIBRINOGEN (fibrin clot [8]; [9]): 3.64 g/L
